Measured values from patent US20150105252A1, “SUBSTITUTED PYRAZOLES AS HERBICIDES” (E I DU PONT DE NEMOURS AND COMPANY, priority 2013, published 2015).

Legend:
johnsongrass = test: Test C preemergence; type: in vivo, Sorghum halepense; conditions: preemergence; for Plant response rating, Johnsongrass: 125 g ai/ha, scale 0 to 100, 0 = no effect, 100 = complete control
How it was run: (§1)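 Seeds were sown in a loam soil–sand blend and sprayed preemergence with compounds formulated in a non-phytotoxic solvent mixture containing surfactant. Postemergence plants, grown in peat/vermiculite medium to 2–18 cm (1- to 4-leaf stage), received the same formulation. After 13 to 15 days in a greenhouse, injury was rated visually against controls (0 = no effect, 100 = complete control).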

foxtail, giant [1] = test: Test A preemergence; type: in vivo, Setaria faberii; conditions: preemergence; for Foxtail, Giant plant response rating (0 to 100 scale): 125 g ai/ha, visual injury approx. 10 days after treatment; for Foxtail, Giant plant response rating: 500 g ai/ha, visual injury after approx. 10 days, 0 to 100 scale (0 no effect, 100 complete control)
How it was run: (§2)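 Visual injury rating, 0–100 (0 no effect, 100 complete control), vs untreated controls ~10 days after treatment in greenhouse. Pre: directed soil spray on seeded loam/sand. Post: 2–10 cm plants, 1–2 leaf stage. Formulation: non-phytotoxic solvent mix + surfactant.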

nutsedge, yellow = test: Test C preemergence; type: in vivo, Cyperus esculentus; conditions: preemergence; for Plant response rating, Nutsedge, Yellow: 125 g ai/ha, scale 0 to 100, 0 = no effect, 100 = complete control
How it was run: as §1

corn = test: Test A postemergence; type: in vivo, Zea mays
How it was run: as §2

foxtail, giant [2] = test: Test A postemergence; type: in vivo, Setaria faberii
How it was run: as §2

ducksalad = test: Test B flood; type: in vivo, Heteranthera limosa; conditions: 250 g ai/ha, visual rating on 0 to 100 scale (0 no effect, 100 complete control), 13 to 15 days
How it was run: (§3)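 Paddy-water application: seedlings at 2-leaf stage, flood depth 3 cm maintained for the test duration. Evaluation after 13–15 days in the greenhouse by eye relative to controls; 0–100 scale.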

ryegrass, Italian = test: Test C preemergence; type: in vivo, Lolium multiflorum; conditions: preemergence; for Plant response rating, Ryegrass, Italian: 125 g ai/ha, scale 0 to 100, 0 = no effect, 100 = complete control
How it was run: as §1

galium = test: Test C preemergence; type: in vivo, Galium aparine; conditions: preemergence; for Plant response rating, Galium: 125 g ai/ha, scale 0 to 100, 0 = no effect, 100 = complete control
How it was run: as §1

barnyardgrass = test: Test C preemergence; type: in vivo, Echinochloa crus-galli; conditions: preemergence; for Plant response rating, Barnyardgrass: 125 g ai/ha, scale 0 to 100, 0 = no effect, 100 = complete control
How it was run: as §1

soybean = test: Test C preemergence; type: in vivo, Glycine max; conditions: preemergence; for Plant response rating, Soybean: 125 g ai/ha, scale 0 to 100, 0 = no effect, 100 = complete control
How it was run: as §1

morningglory = test: Test A postemergence; type: in vivo, Ipomoea spp.; conditions: Postemergence
How it was run: as §2

wheat = test: Test A preemergence; type: in vivo, Triticum aestivum; conditions: preemergence; for Wheat plant response rating (0 to 100 scale): 125 g ai/ha, visual injury approx. 10 days after treatment; for Wheat plant response rating: 500 g ai/ha, visual injury after approx. 10 days, 0 to 100 scale (0 no effect, 100 complete control)
How it was run: as §2

ragweed = test: Test C preemergence; type: in vivo, Ambrosia elation; conditions: preemergence; for Plant response rating, Ragweed: 125 g ai/ha, scale 0 to 100, 0 = no effect, 100 = complete control
How it was run: as §1

sedge, umbrella = test: Test B flood; type: in vivo, Cyperus difformis; conditions: 250 g ai/ha, visual rating on 0 to 100 scale (0 no effect, 100 complete control), 13 to 15 days
How it was run: as §3

[3] = 31 g ai/ha, visual rating, scale 0 to 100 (0 no effect, 100 complete control), 13 to 15 days
[4] = 62 g ai/ha, scale 0 to 100 (0 no effect, 100 complete control), 13 to 15 days
[5] = 250 g ai/ha, scale 0 to 100, 0 is no effect, 100 is complete control
[6] = Postemergence, 500 g ai/ha, 0 to 100 scale (0 no effect, 100 complete control)
[7] = postemergence, 125 g ai/ha, about 10 days, visual rating on 0 to 100 scale (0 no effect, 100 complete control)
[8] = 125 g ai/ha, 0 to 100 scale, 0 no effect, 100 complete control
[9] = 500 g ai/ha, 0 to 100 scale (0 no effect, 100 complete control)

| Structure (SMILES) | Johnsongrass plant response rating (johnsongrass; [3]) | Johnsongrass plant response rating (johnsongrass; [4]) | Plant response rating, Johnsongrass (johnsongrass; 13 to 15 days) | Johnsongrass plant response rating (johnsongrass; [5]) | Foxtail, Giant plant response rating (0 to 100 scale) (foxtail, giant [1]) | Foxtail, Giant plant response rating (foxtail, giant [1]) | Nutsedge, Yellow plant response rating (nutsedge, yellow; [3]) | Nutsedge, Yellow plant response rating (nutsedge, yellow; [4]) | Plant response rating, Nutsedge, Yellow (nutsedge, yellow; 13 to 15 days) | Nutsedge, Yellow plant response rating (nutsedge, yellow; [5]) | Corn plant response rating (corn; [6]) | Corn plant response rating (corn; [7]) | Foxtail, Giant plant response rating (foxtail, giant [2]; [6]) | Foxtail, Giant plant response rating (foxtail, giant [2]; [7]) | Plant response rating, Ducksalad (ducksalad) | Ryegrass, Italian plant response rating (ryegrass, Italian; [3]) | Ryegrass, Italian plant response rating (ryegrass, Italian; [4]) | Plant response rating, Ryegrass, Italian (ryegrass, Italian; 13 to 15 days) | Ryegrass, Italian plant response rating (ryegrass, Italian; [5]) | Galium plant response rating (galium; [3]) | other results |
| --- | --- | --- | --- | --- | --- | --- | --- | --- | --- | --- | --- | --- | --- | --- | --- | --- | --- | --- | --- | --- | --- |
| CCONC(=O)c1cc(OCC)n(Cc2ccnc(C(F)(F)F)c2)n1 [Compound 195] | 5 | 30 | 75 | 85 | 90 | 90 | 20 | 85 | 85 | 95 | 90 | 80 | 100 | 80 | 95 | 10 | 60 | 90 | 90 | 0 | Galium plant response rating (galium; [4]): 85; Plant response rating, Galium (galium; 13 to 15 days): 95; Galium plant response rating (galium; [5]): 100; Barnyardgrass plant response rating (barnyardgrass; [3]): 60; Barnyardgrass plant response rating (barnyardgrass; [4]): 85; Plant response rating, Barnyardgrass (barnyardgrass; 13 to 15 days): 100; Barnyardgrass plant response rating (barnyardgrass; [5]): 100; Soybean plant response rating (soybean; [3]): 5; Soybean plant response rating (soybean; [4]): 5; Plant response rating, Soybean (soybean; 13 to 15 days): 25; Soybean plant response rating (soybean; [5]): 60; Morningglory plant response rating (morningglory; [8]): 70; Morningglory plant response rating (morningglory; [9]): 100; Wheat plant response rating (0 to 100 scale) (wheat): 80; Wheat plant response rating (wheat): 100; Ragweed plant response rating (ragweed; [4]): 85; Plant response rating, Ragweed (ragweed; 13 to 15 days): 90; Ragweed plant response rating (ragweed; [5]): 98; Plant response rating, Sedge, Umbrella (sedge, umbrella): 95 |
| CCNC(=O)c1cc(CC)n(Cc2ccnc(C(F)(F)F)c2)n1 [Compound 196] | 55 | 85 | 100 | 100 | 100 | 90 | 15 | 65 | 80 | 90 | 90 | 80 | 100 | 90 | 80 | 30 | 85 | 90 | 90 | 98 | Galium plant response rating (galium; [4]): 95; Plant response rating, Galium (galium; 13 to 15 days): 100; Galium plant response rating (galium; [5]): 100; Barnyardgrass plant response rating (barnyardgrass; [3]): 98; Barnyardgrass plant response rating (barnyardgrass; [4]): 100; Plant response rating, Barnyardgrass (barnyardgrass; 13 to 15 days): 100; Barnyardgrass plant response rating (barnyardgrass; [5]): 100; Soybean plant response rating (soybean; [3]): 40; Soybean plant response rating (soybean; [4]): 55; Plant response rating, Soybean (soybean; 13 to 15 days): 90; Soybean plant response rating (soybean; [5]): 98; Morningglory plant response rating (morningglory; [8]): 90; Morningglory plant response rating (morningglory; [9]): 100; Wheat plant response rating (0 to 100 scale) (wheat): 20; Wheat plant response rating (wheat): 100; Ragweed plant response rating (ragweed; [3]): 85; Ragweed plant response rating (ragweed; [4]): 90; Plant response rating, Ragweed (ragweed; 13 to 15 days): 98; Ragweed plant response rating (ragweed; [5]): 98; Plant response rating, Sedge, Umbrella (sedge, umbrella): 70 |
| Cc1cc(C(=O)NC(C)C)nn1Cc1ccnc(C(F)(F)F)c1 [Compound 197] | 10 | 40 | 80 | 85 | 100 | 100 | 0 | 25 | 75 | 85 | 90 | 30 | 90 | 80 | 95 | 15 | 35 | 85 | 90 | 90 | Galium plant response rating (galium; [4]): 100; Plant response rating, Galium (galium; 13 to 15 days): 98; Galium plant response rating (galium; [5]): 95; Barnyardgrass plant response rating (barnyardgrass; [3]): 65; Barnyardgrass plant response rating (barnyardgrass; [4]): 98; Plant response rating, Barnyardgrass (barnyardgrass; 13 to 15 days): 100; Barnyardgrass plant response rating (barnyardgrass; [5]): 100; Soybean plant response rating (soybean; [3]): 45; Soybean plant response rating (soybean; [4]): 80; Plant response rating, Soybean (soybean; 13 to 15 days): 98; Soybean plant response rating (soybean; [5]): 98; Morningglory plant response rating (morningglory; [8]): 80; Morningglory plant response rating (morningglory; [9]): 100; Wheat plant response rating (0 to 100 scale) (wheat): 0; Wheat plant response rating (wheat): 50; Ragweed plant response rating (ragweed; [3]): 60; Ragweed plant response rating (ragweed; [4]): 85; Plant response rating, Ragweed (ragweed; 13 to 15 days): 95; Ragweed plant response rating (ragweed; [5]): 98; Plant response rating, Sedge, Umbrella (sedge, umbrella): 85 |
| CCCNC(=O)c1cc(CCC)n(Cc2cc(C(F)(F)F)nn2C)n1 [Compound 198] | 25 | 80 | 100 | 100 | 100 | 90 | 5 | 15 | 30 | 65 | 90 | 90 | 100 | 90 | 100 | 25 | 70 | 90 | 90 | 98 | Galium plant response rating (galium; [4]): 95; Plant response rating, Galium (galium; 13 to 15 days): 100; Galium plant response rating (galium; [5]): 100; Barnyardgrass plant response rating (barnyardgrass; [3]): 100; Barnyardgrass plant response rating (barnyardgrass; [4]): 100; Plant response rating, Barnyardgrass (barnyardgrass; 13 to 15 days): 100; Barnyardgrass plant response rating (barnyardgrass; [5]): 100; Soybean plant response rating (soybean; [3]): 75; Soybean plant response rating (soybean; [4]): 90; Plant response rating, Soybean (soybean; 13 to 15 days): 98; Soybean plant response rating (soybean; [5]): 98; Morningglory plant response rating (morningglory; [8]): 80; Morningglory plant response rating (morningglory; [9]): 100; Wheat plant response rating (0 to 100 scale) (wheat): 60; Wheat plant response rating (wheat): 100; Ragweed plant response rating (ragweed; [3]): 60; Ragweed plant response rating (ragweed; [4]): 85; Plant response rating, Ragweed (ragweed; 13 to 15 days): 98; Ragweed plant response rating (ragweed; [5]): 100; Plant response rating, Sedge, Umbrella (sedge, umbrella): 100 |
